Peptide text beside a SMILES is read from it.
What was measured:
[1] = target: NR1I2 (Homo sapiens, UniProt O75469); experiment: safety panel assay, NR1I2; assay type: binding; conditions: Table 2, NR1I2; accurate to ±20%
[2] = tested on: BioMAP Diversity PLUS panel; experiment: BioMAP Diversity PLUS panel of cell-based systems
[3] = target: SLC18A2 (Homo sapiens, UniProt Q05940); experiment: transporter inhibition, SLC18A2; assay type: biochemical; conditions: Table 2, SLC18A2; accurate to ±20%
[4] = target: ABCB11 (Homo sapiens, UniProt O95342); experiment: transporter inhibition, ABCB11; assay type: biochemical; conditions: Table 2, ABCB11; accurate to ±20%
[5] = target: SLC6A2 (Homo sapiens, UniProt P23975); conditions: Table 2, SLC6A2; accurate to ±20%
[6] = Madin-Darby canine kidney permeability assay; conditions: dog, MDCK
[7] = target: T1, SLCO2B1 (Homo sapiens, UniProt O94956); experiment: in vitro transporter inhibition, SLCO2B1; assay type: biochemical
T1 sequence (O94956 1-709): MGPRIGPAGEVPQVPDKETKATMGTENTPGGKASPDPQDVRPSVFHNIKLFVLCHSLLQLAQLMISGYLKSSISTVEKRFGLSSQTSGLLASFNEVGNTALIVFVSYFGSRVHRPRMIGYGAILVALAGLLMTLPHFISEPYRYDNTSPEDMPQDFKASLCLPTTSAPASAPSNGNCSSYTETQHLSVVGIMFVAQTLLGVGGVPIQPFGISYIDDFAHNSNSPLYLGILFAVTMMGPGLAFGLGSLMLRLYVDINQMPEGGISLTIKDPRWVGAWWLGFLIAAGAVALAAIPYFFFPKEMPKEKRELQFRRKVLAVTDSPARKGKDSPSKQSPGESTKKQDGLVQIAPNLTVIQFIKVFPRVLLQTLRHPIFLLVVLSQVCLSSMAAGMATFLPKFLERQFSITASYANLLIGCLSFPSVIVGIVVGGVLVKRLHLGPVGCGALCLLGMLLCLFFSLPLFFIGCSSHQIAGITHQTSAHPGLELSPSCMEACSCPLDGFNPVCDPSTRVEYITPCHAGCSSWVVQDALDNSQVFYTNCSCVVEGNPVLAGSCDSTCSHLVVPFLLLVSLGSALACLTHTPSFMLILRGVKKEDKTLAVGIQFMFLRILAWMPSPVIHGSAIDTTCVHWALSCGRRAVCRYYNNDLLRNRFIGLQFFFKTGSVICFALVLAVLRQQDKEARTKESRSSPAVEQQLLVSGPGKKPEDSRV

[8] = Pharmacokinetics in rats after i.v. and oral administration; conditions: rat
[9] = target: TBXA2R (Homo sapiens, UniProt P21731); experiment: safety panel assay, TBXA2R; assay type: binding
[10] = target: SCN5A (Homo sapiens, UniProt Q14524); conditions: Table 2, SCN5A; accurate to ±20%
[11] = target: SLC6A3 (Homo sapiens, UniProt Q01959); experiment: safety panel assay, SLC6A3; assay type: biochemical; conditions: Table 2, SLC6A3; accurate to ±20%
[12] = target: T2, ADRA1A (Homo sapiens, UniProt P35348); conditions: Table 2, ADRA1A; accurate to ±20%
T2 sequence (P35348 1-466): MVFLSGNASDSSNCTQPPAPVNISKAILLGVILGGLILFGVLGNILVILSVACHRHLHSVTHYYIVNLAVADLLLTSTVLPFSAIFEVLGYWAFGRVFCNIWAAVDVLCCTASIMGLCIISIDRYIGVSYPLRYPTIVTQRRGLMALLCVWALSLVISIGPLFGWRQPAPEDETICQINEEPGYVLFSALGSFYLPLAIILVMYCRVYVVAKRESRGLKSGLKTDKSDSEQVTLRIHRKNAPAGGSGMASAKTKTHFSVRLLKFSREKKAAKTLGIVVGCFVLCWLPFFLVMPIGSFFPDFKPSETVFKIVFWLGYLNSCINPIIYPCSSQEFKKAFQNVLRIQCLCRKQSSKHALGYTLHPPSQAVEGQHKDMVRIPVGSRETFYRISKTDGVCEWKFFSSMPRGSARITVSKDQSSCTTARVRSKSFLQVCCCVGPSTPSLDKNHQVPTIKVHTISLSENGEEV

[13] = target: T3, CHRM1 (Homo sapiens, UniProt P11229)
T3 sequence (P11229 1-460): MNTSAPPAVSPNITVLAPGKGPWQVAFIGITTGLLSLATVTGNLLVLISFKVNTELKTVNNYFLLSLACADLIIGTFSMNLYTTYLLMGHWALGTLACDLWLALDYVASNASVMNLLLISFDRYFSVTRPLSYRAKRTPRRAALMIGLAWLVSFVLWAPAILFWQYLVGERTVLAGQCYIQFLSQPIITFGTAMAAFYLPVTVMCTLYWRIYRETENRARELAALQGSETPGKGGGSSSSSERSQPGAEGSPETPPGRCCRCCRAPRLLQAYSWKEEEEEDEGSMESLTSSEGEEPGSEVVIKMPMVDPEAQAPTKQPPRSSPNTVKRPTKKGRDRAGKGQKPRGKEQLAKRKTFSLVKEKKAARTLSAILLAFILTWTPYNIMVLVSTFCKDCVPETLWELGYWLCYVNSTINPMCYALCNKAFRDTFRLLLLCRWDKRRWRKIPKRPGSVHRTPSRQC

[14] = target: T4, SLCO1B1 (Homo sapiens, UniProt Q9Y6L6); experiment: in vitro transporter assay, SLCO1B1; conditions: Table 1, predicted target SLCO1B1
T4 sequence (Q9Y6L6 1-691): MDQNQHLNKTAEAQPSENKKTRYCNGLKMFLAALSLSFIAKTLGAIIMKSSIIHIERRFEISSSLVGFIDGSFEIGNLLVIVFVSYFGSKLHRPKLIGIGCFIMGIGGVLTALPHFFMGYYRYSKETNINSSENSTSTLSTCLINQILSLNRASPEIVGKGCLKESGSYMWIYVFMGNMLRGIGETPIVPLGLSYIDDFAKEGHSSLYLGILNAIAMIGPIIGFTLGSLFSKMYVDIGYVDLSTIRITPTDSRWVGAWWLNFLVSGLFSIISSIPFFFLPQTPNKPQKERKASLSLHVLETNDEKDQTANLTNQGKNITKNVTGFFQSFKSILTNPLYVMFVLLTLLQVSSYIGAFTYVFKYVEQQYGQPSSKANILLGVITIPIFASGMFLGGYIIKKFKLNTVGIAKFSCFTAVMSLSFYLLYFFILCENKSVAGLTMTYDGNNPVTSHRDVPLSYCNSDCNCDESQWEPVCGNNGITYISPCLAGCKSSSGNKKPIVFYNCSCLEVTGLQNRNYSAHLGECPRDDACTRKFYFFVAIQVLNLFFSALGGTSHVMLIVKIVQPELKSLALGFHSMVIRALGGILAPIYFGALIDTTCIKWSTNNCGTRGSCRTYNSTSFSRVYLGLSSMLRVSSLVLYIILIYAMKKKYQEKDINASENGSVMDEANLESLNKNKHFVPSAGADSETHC

[15] = target: DRD3 (Homo sapiens, UniProt P35462); conditions: Table 2, DRD3; accurate to ±20%
[16] = target: ADORA3 (Homo sapiens, UniProt P0DMS8); conditions: Table 2, ADORA3; accurate to ±20%
[17] = target: HTR1A (Homo sapiens, UniProt P08908); experiment: safety panel assay, HTR1A; assay type: binding; conditions: Table 2, HTR1A; accurate to ±20%
[18] = target: PDE4D (Homo sapiens, UniProt Q08499); experiment: in vitro assay, PDE4D; assay type: biochemical; conditions: Table 2, PDE4D; accurate to ±20%
[19] = target: PRG (Homo sapiens, UniProt P06401); conditions: Table 2, PRG; accurate to ±20%
[20] = target: ACHE (Homo sapiens, UniProt P22303); conditions: Table 2, ACHE; accurate to ±20%
[21] = rat, in vivo, 1 mg/kg
[22] = not given; remark: listed apart in the source
[23] = target: PRMT1 (Homo sapiens, UniProt Q99873); conditions: Table 1, predicted target PRMT1
[24] = target: PDE3A (Homo sapiens, UniProt Q14432); experiment: safety panel assay, PDE3A; assay type: biochemical
Chain of PDE3A (Q14432 whole entry, species assumed): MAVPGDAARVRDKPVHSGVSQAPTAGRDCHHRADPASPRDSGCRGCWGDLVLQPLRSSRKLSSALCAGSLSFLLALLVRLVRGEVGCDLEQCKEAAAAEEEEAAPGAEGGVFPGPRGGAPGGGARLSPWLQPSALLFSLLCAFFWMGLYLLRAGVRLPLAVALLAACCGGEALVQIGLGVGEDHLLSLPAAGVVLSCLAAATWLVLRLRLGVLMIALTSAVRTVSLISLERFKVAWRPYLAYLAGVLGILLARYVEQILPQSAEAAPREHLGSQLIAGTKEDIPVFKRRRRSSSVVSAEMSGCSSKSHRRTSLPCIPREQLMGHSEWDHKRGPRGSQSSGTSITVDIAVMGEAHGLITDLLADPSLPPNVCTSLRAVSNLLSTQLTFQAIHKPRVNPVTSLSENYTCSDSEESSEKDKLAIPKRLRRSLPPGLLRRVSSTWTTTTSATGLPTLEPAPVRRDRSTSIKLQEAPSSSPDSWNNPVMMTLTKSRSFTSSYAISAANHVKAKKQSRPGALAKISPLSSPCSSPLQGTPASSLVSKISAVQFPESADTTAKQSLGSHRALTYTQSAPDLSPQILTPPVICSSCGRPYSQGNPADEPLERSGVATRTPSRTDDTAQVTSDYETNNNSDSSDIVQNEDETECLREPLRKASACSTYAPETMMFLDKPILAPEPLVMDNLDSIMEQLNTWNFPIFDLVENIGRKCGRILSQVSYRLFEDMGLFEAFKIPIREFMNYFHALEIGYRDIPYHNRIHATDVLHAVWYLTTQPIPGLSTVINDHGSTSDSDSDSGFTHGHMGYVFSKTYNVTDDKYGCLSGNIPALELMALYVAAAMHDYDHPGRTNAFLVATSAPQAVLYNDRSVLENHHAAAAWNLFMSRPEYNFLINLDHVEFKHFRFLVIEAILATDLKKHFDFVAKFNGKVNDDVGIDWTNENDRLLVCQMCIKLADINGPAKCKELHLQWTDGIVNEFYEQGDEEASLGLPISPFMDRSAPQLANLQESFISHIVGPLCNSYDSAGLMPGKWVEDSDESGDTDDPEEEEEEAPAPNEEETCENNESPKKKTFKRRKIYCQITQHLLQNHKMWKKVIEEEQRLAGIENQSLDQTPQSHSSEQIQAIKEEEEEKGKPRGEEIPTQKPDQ

Chain of PDE4D (Q08499 whole entry): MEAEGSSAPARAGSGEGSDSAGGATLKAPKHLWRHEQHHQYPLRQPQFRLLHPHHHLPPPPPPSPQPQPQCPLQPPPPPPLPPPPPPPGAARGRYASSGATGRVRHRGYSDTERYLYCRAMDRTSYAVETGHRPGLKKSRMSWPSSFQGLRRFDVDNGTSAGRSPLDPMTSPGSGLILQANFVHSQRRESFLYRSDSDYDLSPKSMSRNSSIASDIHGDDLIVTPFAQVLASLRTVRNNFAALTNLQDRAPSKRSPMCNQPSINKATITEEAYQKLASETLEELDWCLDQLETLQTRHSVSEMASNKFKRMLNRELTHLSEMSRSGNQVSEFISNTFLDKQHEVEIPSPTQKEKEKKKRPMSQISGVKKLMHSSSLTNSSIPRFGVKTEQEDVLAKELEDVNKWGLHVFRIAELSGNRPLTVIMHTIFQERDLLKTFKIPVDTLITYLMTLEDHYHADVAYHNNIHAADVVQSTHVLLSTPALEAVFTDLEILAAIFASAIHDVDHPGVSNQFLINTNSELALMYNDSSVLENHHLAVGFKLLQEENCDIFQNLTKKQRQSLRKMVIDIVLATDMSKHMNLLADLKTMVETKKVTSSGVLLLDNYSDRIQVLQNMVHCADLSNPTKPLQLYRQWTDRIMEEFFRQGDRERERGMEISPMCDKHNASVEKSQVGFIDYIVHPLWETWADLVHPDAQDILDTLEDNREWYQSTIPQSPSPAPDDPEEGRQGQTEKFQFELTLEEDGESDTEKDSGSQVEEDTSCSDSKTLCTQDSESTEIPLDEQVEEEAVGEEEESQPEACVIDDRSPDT
Chain of TBXA2R (P21731 whole entry, species assumed): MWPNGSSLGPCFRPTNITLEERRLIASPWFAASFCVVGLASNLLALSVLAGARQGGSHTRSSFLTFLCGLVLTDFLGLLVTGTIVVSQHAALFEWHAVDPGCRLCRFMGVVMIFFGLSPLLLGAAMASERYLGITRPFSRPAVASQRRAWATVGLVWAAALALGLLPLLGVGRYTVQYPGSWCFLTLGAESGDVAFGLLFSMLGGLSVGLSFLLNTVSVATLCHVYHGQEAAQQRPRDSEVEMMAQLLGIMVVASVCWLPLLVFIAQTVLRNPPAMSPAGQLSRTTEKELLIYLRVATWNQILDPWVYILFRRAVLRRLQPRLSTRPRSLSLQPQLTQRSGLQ
Chain of SLC18A2 (Q05940 whole entry, species assumed): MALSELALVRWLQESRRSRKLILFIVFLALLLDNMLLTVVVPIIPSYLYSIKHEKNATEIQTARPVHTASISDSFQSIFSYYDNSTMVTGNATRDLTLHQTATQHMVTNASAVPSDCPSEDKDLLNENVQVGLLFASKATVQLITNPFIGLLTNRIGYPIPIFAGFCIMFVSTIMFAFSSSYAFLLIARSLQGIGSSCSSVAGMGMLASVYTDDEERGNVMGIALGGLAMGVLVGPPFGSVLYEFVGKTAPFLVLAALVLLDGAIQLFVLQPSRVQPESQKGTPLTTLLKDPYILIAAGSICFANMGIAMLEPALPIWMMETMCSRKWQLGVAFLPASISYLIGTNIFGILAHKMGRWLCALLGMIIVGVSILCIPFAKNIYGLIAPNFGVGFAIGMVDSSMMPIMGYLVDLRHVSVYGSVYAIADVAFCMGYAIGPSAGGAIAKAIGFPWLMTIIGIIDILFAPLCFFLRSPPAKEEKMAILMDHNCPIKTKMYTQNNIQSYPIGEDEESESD
Chain of ACHE (P22303 32-614): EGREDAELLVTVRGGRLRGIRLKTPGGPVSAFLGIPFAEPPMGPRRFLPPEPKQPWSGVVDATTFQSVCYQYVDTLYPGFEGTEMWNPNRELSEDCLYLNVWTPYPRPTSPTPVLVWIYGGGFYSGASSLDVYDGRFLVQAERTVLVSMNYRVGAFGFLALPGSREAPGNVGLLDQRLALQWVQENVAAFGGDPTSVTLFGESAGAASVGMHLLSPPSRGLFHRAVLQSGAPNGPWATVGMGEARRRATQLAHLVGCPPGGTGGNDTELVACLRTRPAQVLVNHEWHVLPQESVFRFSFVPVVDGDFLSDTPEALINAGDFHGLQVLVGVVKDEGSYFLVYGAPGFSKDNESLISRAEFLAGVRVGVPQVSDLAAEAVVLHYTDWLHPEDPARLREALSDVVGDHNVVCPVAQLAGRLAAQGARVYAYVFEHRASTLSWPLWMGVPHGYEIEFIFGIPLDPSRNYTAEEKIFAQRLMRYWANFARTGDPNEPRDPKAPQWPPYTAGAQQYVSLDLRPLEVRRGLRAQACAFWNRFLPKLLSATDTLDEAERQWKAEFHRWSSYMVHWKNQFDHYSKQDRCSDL
Chain of SLC6A2 (P23975 whole entry, species assumed): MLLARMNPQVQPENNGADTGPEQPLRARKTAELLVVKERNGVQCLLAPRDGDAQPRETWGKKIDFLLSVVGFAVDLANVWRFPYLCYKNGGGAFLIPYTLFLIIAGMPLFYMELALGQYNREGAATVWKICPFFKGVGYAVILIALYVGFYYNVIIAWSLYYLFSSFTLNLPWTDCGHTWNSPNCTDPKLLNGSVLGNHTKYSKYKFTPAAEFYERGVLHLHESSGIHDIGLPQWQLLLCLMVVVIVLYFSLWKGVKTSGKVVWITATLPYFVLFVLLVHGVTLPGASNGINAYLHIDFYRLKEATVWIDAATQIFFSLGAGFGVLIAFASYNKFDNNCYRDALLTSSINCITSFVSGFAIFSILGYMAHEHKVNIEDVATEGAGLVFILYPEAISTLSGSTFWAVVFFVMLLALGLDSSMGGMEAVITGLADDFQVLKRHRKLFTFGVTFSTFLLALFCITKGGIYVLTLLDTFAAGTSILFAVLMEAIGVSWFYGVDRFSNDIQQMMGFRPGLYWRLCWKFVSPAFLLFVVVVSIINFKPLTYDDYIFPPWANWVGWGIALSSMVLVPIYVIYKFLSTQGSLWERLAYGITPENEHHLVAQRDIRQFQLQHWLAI
Chain of NR1I2 (O75469 whole entry, species assumed): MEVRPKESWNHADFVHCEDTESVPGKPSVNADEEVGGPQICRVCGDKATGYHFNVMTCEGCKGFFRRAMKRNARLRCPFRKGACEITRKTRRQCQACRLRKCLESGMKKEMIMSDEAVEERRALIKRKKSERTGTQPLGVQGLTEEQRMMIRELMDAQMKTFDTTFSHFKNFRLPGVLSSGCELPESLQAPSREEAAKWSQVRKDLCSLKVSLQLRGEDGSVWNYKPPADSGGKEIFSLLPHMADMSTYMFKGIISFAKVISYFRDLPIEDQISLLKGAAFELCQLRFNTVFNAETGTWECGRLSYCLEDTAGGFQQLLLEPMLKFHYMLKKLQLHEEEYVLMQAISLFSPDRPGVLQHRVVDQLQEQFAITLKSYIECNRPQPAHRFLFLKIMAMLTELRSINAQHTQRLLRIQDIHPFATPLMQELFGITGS
Chain of HTR1A (P08908 whole entry, species assumed): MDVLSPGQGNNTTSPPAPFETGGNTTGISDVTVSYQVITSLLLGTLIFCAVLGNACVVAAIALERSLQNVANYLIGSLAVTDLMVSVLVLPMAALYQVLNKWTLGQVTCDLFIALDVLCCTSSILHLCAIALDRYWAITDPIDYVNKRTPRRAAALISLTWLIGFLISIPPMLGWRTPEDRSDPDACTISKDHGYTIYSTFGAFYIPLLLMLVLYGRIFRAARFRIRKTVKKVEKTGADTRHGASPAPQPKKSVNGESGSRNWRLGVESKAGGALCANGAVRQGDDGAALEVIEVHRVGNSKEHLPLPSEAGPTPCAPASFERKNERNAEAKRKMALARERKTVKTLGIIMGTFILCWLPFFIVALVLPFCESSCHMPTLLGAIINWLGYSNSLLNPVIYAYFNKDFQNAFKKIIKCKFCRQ

COC(=O)[C@H](Cc1ccccc1)NC(=O)[C@@H](N)CC(=O)O [Aspartame] (HELM PEPTIDE1{D.F.[CO[*:1]]}$$$$V2.0)
Ki/IC50 Or EC50 [1]: 13 µM | activity in the BioMAP cell-based systems ([2]; 1.1, 3.3, 10, 30 μM): no measurable activity

O=C(O)c1ccccc1 [Benzoic acid]
Ki/IC50 Or EC50 [3]: 18 µM | Ki/IC50 Or EC50 [4]: 260 µM

CCCCOC(=O)c1ccc(O)cc1 [Butylparaben]
Ki/IC50 Or EC50 [3]: 6.6 µM | Ki/IC50 Or EC50 [5]: 20 µM | Papp [6]: 8.3 ×10⁻⁶ cm/s | Ki/IC50 Or EC50 ([7]; Table 2, SLCO2B1, accurate to ±20%): 39 µM | concentrations in the blood ([8]; dosed at 10 mg/kg oral): negligible concentrations in the blood | Cmax ([8]; in vivo, po, 10 mg/kg): < 2.6 nM | IC50 [9]: 19 µM | Ki/IC50 Or EC50 ([9]; Table 2, TBXA2R, accurate to ±20%): 19 µM | Ki/IC50 Or EC50 [10]: 33 µM | Ki/IC50 Or EC50 [11]: 18 µM | Ki/IC50 Or EC50 [12]: 16 µM | Ki/IC50 ([13]; Table 1, predicted target CHRM1): 12 µM | MCP-1 (CCL2) and sPGE2 levels ([2]; peripheral blood mononuclear cells and venular endothelial cells): dose-dependently decreased

CCCCCCCCCCCCOS(=O)(=O)[O-].[Na+] [Sodium lauryl sulfate]
Ki/IC50 [14]: 2.9 µM | Ki/IC50 ([7]; Table 1, predicted target SLCO2B1): 2.8 µM | Ki/IC50 Or EC50 [15]: 18 µM | Ki/IC50 Or EC50 [16]: 15 µM | Ki/IC50 Or EC50 [17]: 15 µM | Ki/IC50 Or EC50 [12]: 15 µM | Ki/IC50 Or EC50 ([13]; Table 2, CHRM1, accurate to ±20%): 29 µM | Ki/IC50 Or EC50 [18]: 23 µM | Ki/IC50 Or EC50 [19]: 15 µM

FD&C Red No. 3
Ki/IC50 Or EC50 [20]: 0.42 µM | %F [21]: 0.7% | MDCK-LE Papp: <0.5 ×10⁻⁶ cm/s | plasma protein binding [22]: 99% | Ki/IC50 [23]: 0.46 µM | Ki/IC50 Or EC50 ([24]; Table 2, PDE3A, accurate to ±20%): 0.092 µM | IC50 ([24]; Table 4, target PDE3A): 0.092 µM | Ki/IC50 Or EC50 [18]: 0.32 µM
